Assay results from patent US20240189309A1, “TYK2 INHIBITORS AND USES THEREOF” (Sudo Biosciences Limited, priority 2021, published 2024).

Tests used:
Type in all cases: cell-based
TYK2 Pseudokinase (JH2) [1] = target: T1, TYK2 Pseudokinase (JH2) (Homo sapiens, UniProt P29597); experiment: HEK-Blue IL-23 reporter assay (SEAP) for profiling TYK2 pseudokinase (JH2) inhibition; parameters: HEK-Blue™ IL-23 and IFNα/β cells with a stably-integrated cytokine receptor and STAT3 or STAT1; endogenous in cells; host or cells: HEK-Blue IL-23 and HEK-Blue IFNα/β cells; conditions: HEK-Blue IL-23 cells, 10 ng/mL human recombinant IL-23, SEAP reporter; read-out: IL23 (TYK2 inhibitory activity, IC50)
T1 sequence (P29597 whole entry): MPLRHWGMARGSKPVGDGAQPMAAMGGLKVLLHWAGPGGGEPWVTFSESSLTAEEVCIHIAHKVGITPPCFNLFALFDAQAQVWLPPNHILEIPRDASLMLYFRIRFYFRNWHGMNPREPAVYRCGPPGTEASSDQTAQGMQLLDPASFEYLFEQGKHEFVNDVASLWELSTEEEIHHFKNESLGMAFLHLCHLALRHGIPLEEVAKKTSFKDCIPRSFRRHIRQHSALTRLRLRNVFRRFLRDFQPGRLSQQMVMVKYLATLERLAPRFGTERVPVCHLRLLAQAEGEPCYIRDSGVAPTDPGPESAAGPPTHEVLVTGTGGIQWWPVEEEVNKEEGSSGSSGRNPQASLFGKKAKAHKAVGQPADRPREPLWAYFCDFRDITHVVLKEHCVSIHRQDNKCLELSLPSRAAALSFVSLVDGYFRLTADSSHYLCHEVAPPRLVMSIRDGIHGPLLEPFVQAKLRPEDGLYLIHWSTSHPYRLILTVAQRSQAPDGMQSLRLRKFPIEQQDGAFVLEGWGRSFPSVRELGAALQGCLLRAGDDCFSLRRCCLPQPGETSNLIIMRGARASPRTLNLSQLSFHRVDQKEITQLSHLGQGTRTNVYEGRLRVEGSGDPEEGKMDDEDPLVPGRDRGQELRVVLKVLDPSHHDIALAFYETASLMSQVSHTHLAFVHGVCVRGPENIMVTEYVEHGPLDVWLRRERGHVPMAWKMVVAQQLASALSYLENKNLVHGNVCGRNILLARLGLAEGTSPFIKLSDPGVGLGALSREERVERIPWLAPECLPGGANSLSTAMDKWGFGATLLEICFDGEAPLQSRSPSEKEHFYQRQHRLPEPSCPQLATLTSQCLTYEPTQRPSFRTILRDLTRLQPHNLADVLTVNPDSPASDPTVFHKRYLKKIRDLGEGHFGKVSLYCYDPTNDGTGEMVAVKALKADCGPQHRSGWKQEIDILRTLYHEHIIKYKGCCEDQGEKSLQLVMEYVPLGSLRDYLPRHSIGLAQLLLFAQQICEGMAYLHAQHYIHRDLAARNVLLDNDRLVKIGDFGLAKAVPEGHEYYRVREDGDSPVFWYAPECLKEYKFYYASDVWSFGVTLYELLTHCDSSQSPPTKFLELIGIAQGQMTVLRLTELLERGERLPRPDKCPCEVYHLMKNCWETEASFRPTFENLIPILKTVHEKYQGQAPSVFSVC
Experimental: (§1) Example B-1: HEK-Blue™ IL-23 and IFNα/β Reporter Assays for Profiling TYK2 Pseudokinase (JH2) Inhibition
(§2) HEK-Blue™ IL-23 and IFNα/β cells with a stably-integrated cytokine receptor and STAT3 or STAT1 express STAT-inducible secreted embryonic alkaline phosphatase (SEAP) reporter gene upon cytokine stimulation. These cells are plated in DMEM (Gibco) containing 10% heat-inactivated FBS (Gibco) and 100 U/mL PenStrep (Gibco) at 37° C. under 5% CO2 conditions for 20-22 hours. The cells are then pretreated with serially diluted test compounds for 60 min prior to stimulation with either 10 ng/mL human recombinant IL-23 (Miltenyl Biotech) or 1 ng/mL human recombinant IFNα (InvivoGen) for 22-24 hours for IL-23 or 16-18 h for IFNα. SEAP induction is measured using the QUANTI Blue™ Solution (InvivoGen) according to the manufacturer's instructions.

TYK2 Pseudokinase (JH2) [2] = target: T1, TYK2 Pseudokinase (JH2); experiment: HEK-Blue IFNα/β reporter assay (SEAP) for profiling TYK2 pseudokinase (JH2) inhibition; conditions: HEK-Blue IFNα/β cells, 1 ng/mL human recombinant IFNα, read-out: IFNα (TYK2 inhibitory activity, IC50)
Experimental: as §1, §2

[3] = tested on: HEK-Blue™ IL-2 reporter cells; experiment: HEK-Blue IL-2 reporter assay (SEAP) for determining selectivity; conditions: HEK-Blue IL-2 cells, 4 ng/mL human recombinant IL-2, SEAP reporter
Experimental: (§3) Example B-3: HEK-Blue™ IL-2 and IFNγ Reporter Assays for Determining Selectivity
(§4) HEK-Blue™ IL-2 and IFNγ reporter cells with a stably-integrated cytokine receptor and STAT5 or STAT1 express STAT-inducible secreted embryonic alkaline phosphatase (SEAP) reporter gene upon cytokine stimulation. These cells were plated in DMEM (Gibco) containing 10% heat-inactivated FBS (Gibco) and 100 U/mL PenStrep (Gibco) at 37° C. under 5% CO2 conditions for 20-22 hours. The cells were then pre-treated with serially diluted test compounds for 60 min prior to stimulation with either 4 ng/mL human recombinant IL-2 (Miltenyl Biotech) or 50 ng/mL human recombinant IFNγ (InvivoGen) for 24 hours. SEAP induction was measured using the QUANTI-Blue™ Solution (InvivoGen) according to the manufacturer's instructions.

[4] = tested on: HEK-Blue™ IFNγ reporter cells; experiment: HEK-Blue IFNγ reporter assay (SEAP) for determining selectivity; conditions: 50 ng/mL human recombinant IFNγ, read-out: IFN-γ (SEAP selectivity, IC50)
Experimental: as §3, §4

Structure (SMILES)	IC50 (TYK2 Pseudokinase (JH2) [1]) [nM]	IC50 (TYK2 Pseudokinase (JH2) [2]) [nM]	IC50 [3] [nM]	IC50 [4] [nM]
CNC(=O)c1nnc(Nc2ccc(F)cn2)cc1Nc1cccc2c1OCc1c-2noc1C [Compound 1, 6-((5-fluoropyridin-2-yl)amino)-N-methyl-4-((3-methyl-4H-chromeno[4,3-c]isoxazol-6-yl)amino)pyridazine-3-carboxamide]	300 to 1000	> 1000	–	–
CNC(=O)c1nnc(NC(=O)C2CC2)cc1Nc1cccc2c1OCc1nn(C)c(=O)n1-2 [Compound 6, 6-(cyclopropanecarboxamido)-N-methyl-4-((2-methyl-1-oxo-2,4-dihydro-1H-benzo[b][1,2,4]triazolo[4,3-d][1,4]oxazin-6-yl)amino)pyridazine-3-carboxamide]	300 to 1000	> 1000	–	–
CNC(=O)c1nnc(NC(=O)C2CC2)cc1Nc1cccc2c1OCc1c-2noc1C [Compound 3, 6-(cyclopropanecarboxamido)-N-methyl-4-((3-methyl-4H-chromeno[4,3-c]isoxazol-6-yl)amino)pyridazine-3-carboxamide]	30 to 300	–	> 1000	> 1000
[2H]C([2H])([2H])NC(=O)c1cnc(NC(=O)C2CC2)cc1Nc1cccc2c1N(C)Cc1nc(C)oc1-2 [Compound 23, 6-(cyclopropanecarboxamido)-4-((2,5-dimethyl-4,5-dihydrooxazolo[4,5-c]quinolin-6-yl)amino)-N-(methyl-d3)nicotinamide]	< 30	30 to 300	> 1000	30 to 300
[2H]C([2H])([2H])NC(=O)c1cnc(NC(=O)C2CC2)cc1Nc1nccc2c1N(C)Cc1nn(C)c(=O)n1-2 [Compound 21, 6-(cyclopropanecarboxamido)-4-((2,5-dimethyl-1-oxo-1,2,4,5-tetrahydropyrido[3,4-e][1,2,4]triazolo[4,3-a]pyrazin-6-yl)amino)-N-(methyl-d3)nicotinamide]	< 30	30 to 300	> 1000	300 to 1000
[2H]C([2H])([2H])NC(=O)c1nnc(NC(=O)C2CC2)cc1Nc1nccc2c1N(C)Cc1sc(C)nc1-2 [Compound 36, 6-(cyclopropanecarboxamido)-4-((2,5-dimethyl-4,5-dihydrothiazolo[5,4-c][1,7]naphthyridin-6-yl)amino)-N-(methyl-d3)pyridazine-3-carboxamide]	< 30	< 30	300 to 1000	30 to 300
[2H]C([2H])([2H])NC(=O)c1cnc(NC(=O)C2CC2)cc1Nc1cncc2c1N(C)Cc1nn(C)c(=O)n1-2 [Compound 13, 6-(cyclopropanecarboxamido)-4-((2,5-dimethyl-1-oxo-1,2,4,5-tetrahydropyrido[4,3-e][1,2,4]triazolo[4,3-a]pyrazin-6-yl)amino)-N-(methyl-d3)nicotinamide]	> 1000	> 1000	–	–
CNC(=O)c1nnc(Nc2ccc(F)cn2)cc1Nc1cccc2c1OCc1nnnn1-2 [Compound 4, 4-((4H-benzo[b]tetrazolo[1,5-d][1,4]oxazin-6-yl)amino)-6-((5-fluoropyridin-2-yl)amino)-N-methylpyridazine-3-carboxamide]	300 to 1000	> 1000	–	–
CNC(=O)c1nnc(Nc2ccc(F)cn2)cc1Nc1cccc2c1OCc1nn(C)c(=O)n1-2 [Compound 7, 6-((5-fluoropyridin-2-yl)amino)-N-methyl-4-((2-methyl-1-oxo-2,4-dihydro-1H-benzo[b][1,2,4]triazolo[4,3-d][1,4]oxazin-6-yl)amino)pyridazine-3-carboxamide]	> 1000	> 1000	–	–
CNC(=O)c1nnc(NC(=O)C2CC2)cc1Nc1cccc2c1OCn1nnnc1-2 [Compound 5, 4-((5H-benzo[e]tetrazolo[1,5-c][1,3]oxazin-7-yl)amino)-6-(cyclopropanecarboxamido)-N-methylpyridazine-3-carboxamide]	300 to 1000	> 1000	–	–

The next lines start with results.

IC50 (TYK2 Pseudokinase (JH2) [1]) [nM]	IC50 (TYK2 Pseudokinase (JH2) [2]) [nM]	Structure (SMILES)	IC50 [3] [nM]	IC50 [4] [nM]
30 to 300	300 to 1000	[2H]C([2H])([2H])NC(=O)c1nnc(NC(=O)C2CC2)cc1Nc1cccc2c1N(C)C[C@@H]1CCC(=O)N21 [Compound 39, (S)-6-(cyclopropanecarboxamido)-N-(methyl-d3)-4-((5-methyl-1-oxo-1,2,3,3a,4,5-hexahydropyrrolo[1,2-a]quinoxalin-6-yl)amino)pyridazine-3-carboxamide]	–	–
< 30	30 to 300	[2H]C([2H])([2H])NC(=O)c1nnc(NC(=O)C2CC2)cc1Nc1cccc2c1N(C)CC1CCC(=O)N21 (centres unmarked) [Compound 37, 6-(cyclopropanecarboxamido)-N-(methyl-d3)-4-((5-methyl-1-oxo-1,2,3,3a,4,5-hexahydropyrrolo[1,2-a]quinoxalin-6-yl)amino)pyridazine-3-carboxamide]	> 1000	300 to 1000
< 30	< 30	[2H]C([2H])([2H])NC(=O)c1nnc(NC(=O)C2CC2)cc1Nc1cccc2c1N(C)Cc1sc(C)nc1-2 [Compound 35, 6-(cyclopropanecarboxamido)-4-((2,5-dimethyl-4,5-dihydrothiazolo[5,4-c]quinolin-6-yl)amino)-N-(methyl-d3)pyridazine-3-carboxamide]	> 1000	–
< 30	–	[2H]C([2H])([2H])NC(=O)c1nnc(NC(=O)C2CC2)cc1Nc1cccc2c1N(C)Cc1nc(C)oc1-2 [Compound 22, 6-(cyclopropanecarboxamido)-4-((2,5-dimethyl-4,5-dihydrooxazolo[4,5-c]quinolin-6-yl)amino)-N-(methyl-d3)pyridazine-3-carboxamide]	300 to 1000	–
< 30	30 to 300	[2H]C([2H])([2H])NC(=O)c1nnc(NC(=O)C2CC2)cc1Nc1cccc2c1N(C)C[C@H]1CCC(=O)N21 [Compound 38, (R)-6-(cyclopropanecarboxamido)-N-(methyl-d3)-4-((5-methyl-1-oxo-1,2,3,3a,4,5-hexahydropyrrolo[1,2-a]quinoxalin-6-yl)amino)pyridazine-3-carboxamide]	300 to 1000	30 to 300
> 1000	300 to 1000	[2H]C([2H])([2H])NC(=O)c1nnc(NC(=O)C2COC2)cc1Nc1cccc2c1N(C)Cc1nn(C)c(=O)n1-2 [Compound 19, 4-((2,5-dimethyl-1-oxo-1,2,4,5-tetrahydro-[1,2,4]triazolo[4,3-a]quinoxalin-6-yl)amino)-N-(methyl-d3)-6-(oxetane-3-carboxamido)pyridazine-3-carboxamide]	–	–
